Assay results: US20260217706A1, “HETEROCYCLIC COMPOUNDS, PREPARATION METHOD THEREFOR AND USE THEREOF” (GUANGZHOU YUFAN NANTU BIOTECHNOLOGIES CO., LTD, priority 2023, published 2026)

Legend:
CBL-B protein = CBL-B protein (Homo sapiens, UniProt Q13191); assay: CBL-B binding experiment (Streptavidin-Tb cryptate / Ligand L1 displacement); conditions: 8 nM CBL-B protein, 25° C., 60 minutes; Ki=Relative IC50/2
How it was run: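 Compounds in a 10-point DMSO series met 8 nM CBL-B protein in HEPES pH 7.5/NaCl/Triton/TCEP/BSA buffer at 25° C. for 60 min. A further 60 min at room temperature preceded the luminescence read, normalised to no-protein and DMSO wells. Ki was taken as relative IC50 divided by 2.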

[1] = test system: anti-CD3 activated human PBMCs; assay: Effect of compounds on the level of IL-2 secretion by anti-CD3 activated human PBMCs (IL-2 ELISA); assay type: cell-based; conditions: compound concentration at which fold change in IL-2 = 5; hPBMCs, CD3 antibody 2 μg/mL, 48 h, compound from 3 μM
How it was run: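 Human PBMCs were preincubated 1 h, then exposed to compound (10 points, 3-fold from 3 μM final) with anti-CD3 at 2 μg/mL for 48 h at 37° C. Supernatant IL-2 was measured by ELISA as fold change over DMSO.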

Sequence of CBL-B protein (Q13191 whole entry): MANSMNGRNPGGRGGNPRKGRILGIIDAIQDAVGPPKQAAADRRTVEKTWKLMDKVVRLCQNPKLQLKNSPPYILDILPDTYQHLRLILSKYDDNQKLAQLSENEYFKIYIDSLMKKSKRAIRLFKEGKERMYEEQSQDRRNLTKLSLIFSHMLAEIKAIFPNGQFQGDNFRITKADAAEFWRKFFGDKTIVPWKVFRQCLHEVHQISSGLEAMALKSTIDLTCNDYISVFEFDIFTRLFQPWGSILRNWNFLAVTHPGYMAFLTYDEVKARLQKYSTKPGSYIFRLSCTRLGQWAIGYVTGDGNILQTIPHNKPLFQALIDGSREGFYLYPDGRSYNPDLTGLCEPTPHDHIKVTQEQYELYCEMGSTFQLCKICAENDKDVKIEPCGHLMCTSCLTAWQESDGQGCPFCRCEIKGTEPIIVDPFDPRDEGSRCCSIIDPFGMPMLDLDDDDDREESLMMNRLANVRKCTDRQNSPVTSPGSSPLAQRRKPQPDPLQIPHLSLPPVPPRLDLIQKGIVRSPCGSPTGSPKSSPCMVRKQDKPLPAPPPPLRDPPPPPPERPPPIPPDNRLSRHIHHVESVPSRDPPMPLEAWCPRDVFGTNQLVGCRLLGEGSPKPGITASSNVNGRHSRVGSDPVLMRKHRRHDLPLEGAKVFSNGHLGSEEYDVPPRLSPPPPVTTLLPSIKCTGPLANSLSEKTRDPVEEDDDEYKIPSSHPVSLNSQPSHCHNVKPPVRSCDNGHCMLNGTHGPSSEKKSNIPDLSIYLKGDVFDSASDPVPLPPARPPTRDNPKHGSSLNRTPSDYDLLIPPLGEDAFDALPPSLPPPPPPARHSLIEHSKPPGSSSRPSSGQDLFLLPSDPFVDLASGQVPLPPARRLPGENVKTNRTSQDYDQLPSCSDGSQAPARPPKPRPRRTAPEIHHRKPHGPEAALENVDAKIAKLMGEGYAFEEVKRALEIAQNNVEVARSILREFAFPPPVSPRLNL

Compound | Ki (CBL-B protein) [nM] | IL-2 CFC=5/nM [1] [nM]
CO[C@H]1C[C@](c2cccc(-n3cc(C(F)(F)F)c4cc(CNCCC5CC5)[nH]c4c3=O)c2)(c2nncn2C)C1 [Compound T154, 2-(((2-cyclopropylethyl)amino)methyl)-6-(3-((1r,3r)-3-methoxy-1-(4-methyl-4H-1,2,4-triazol-3-yl)cyclobutyl)phenyl)-4-(trifluoromethyl)-1,6-dihydro-7H-pyrrolo[2,3-c]pyridin-7-one] | < 50 | <500
CO[C@H]1C[C@](c2cccc(-n3cc(C(F)(F)F)c4cc(CN5CCCC(C(F)F)C5)[nH]c4c3=O)c2)(c2nncn2C)C1 (stereo partly shown) [Compound T156, 2-((3-(difluoromethyl)piperidin-1-yl)methyl)-6-(3-((1r,3r)-3-methoxy-1-(4-methyl-4H-1,2,4-triazol-3-yl)cyclobutyl)phenyl)-4-(trifluoromethyl)-1,6-dihydro-7H-pyrrolo[2,3-c]pyridin-7-one] | < 50 | <500
Cn1cnnc1[C@]1(c2cccc(-n3cc(C(F)(F)F)c4cc(CN5CCCC(C(F)F)C5)[nH]c4c3=O)c2)C[C@H](C)C1 (stereo partly shown) [Compound T157, 2-((3-(difluoromethyl)piperidin-1-yl)methyl)-6-(3-((1s,3s)-3-methyl-1-(4-methyl-4H-1,2,4-triazol-3-yl)cyclobutyl)phenyl)-4-(trifluoromethyl)-1,6-dihydro-7H-pyrrolo[2,3-c]pyridin-7-one] | < 50 | <500
C[C@H](NCc1cc2c(C(F)(F)F)cn(-c3cccc([C@]4(c5nncn5C)C[C@@H](C)C4)c3)c(=O)c2[nH]1)C(C)(C)C [Compound T158, 2-((((S)-3,3-dimethylbutan-2-yl)amino)methyl)-6-(3-((1s,3R)-3-methyl-1-(4-methyl-4H-1,2,4-triazol-3-yl)cyclobutyl)phenyl)-4-(trifluoromethyl)-1,6-dihydro-7H-pyrrolo[2,3-c]pyridin-7-one] | < 50 | <500
CCN(Cc1cc2c(C(F)(F)F)cn(-c3cccc([C@]4(c5nncn5C)C[C@@H](C)C4)c3)c(=O)c2[nH]1)C(C)C [Compound T159, 2-((ethyl(isopropyl)amino)methyl)-6-(3-((1s,3s)-3-methyl-1-(4-methyl-4H-1,2,4-triazol-3-yl)cyclobutyl)phenyl)-4-(trifluoromethyl)-1,6-dihydro-7H-pyrrolo[2,3-c]pyridin-7-one] | < 50 | <500
CCCNCc1cc2c(C(F)(F)F)cn(-c3cccc(C4(c5nncn5C)CCC4)c3)c(=O)c2[nH]1 [Compound T160, 6-(3-(1-(4-methyl-4H-1,2,4-triazol-3-yl)cyclobutyl)phenyl)-2-((propylamino)methyl)-4-(trifluoromethyl)-1,6-dihydro-7H-pyrrolo[2,3-c]pyridin-7-one] | < 50 | <500
Cn1cnnc1C1(c2cccc(-n3cc(C(F)(F)F)c4cc(CNC(C)(C)C)[nH]c4c3=O)c2)CCC1 [Compound T161, 2-((tert-butylamino)methyl)-6-(3-(1-(4-methyl-4H-1,2,4-triazol-3-yl)cyclobutyl)phenyl)-4-(trifluoromethyl)-1,6-dihydro-7H-pyrrolo[2,3-c]pyridin-7-one] | < 50 | <500
Cn1cnnc1C1(c2cccc(-n3cc(C(F)(F)F)c4cc(CNCC(C)(C)C)[nH]c4c3=O)c2)CCC1 [Compound T162, 6-(3-(1-(4-methyl-4H-1,2,4-triazol-3-yl)cyclobutyl)phenyl)-2-((neopentylamino)methyl)-4-(trifluoromethyl)-1,6-di hydro-7H-pyrrolo[2,3-c]pyridin-7-one] | < 50 | <500
CCN(Cc1cc2c(C(F)(F)F)cn(-c3cccc([C@]4(c5nncn5C)C[C@@H](OC)C4)c3)c(=O)c2[nH]1)C(C)C [Compound T192] | < 50 | <500

Further lines, with some results ahead:

Ki (CBL-B protein) [nM] | Compound | IL-2 CFC=5/nM [1] [nM]
< 50 | CO[C@H]1C[C@@](c2cccc(-n3cc(C(F)(F)F)c4cc(CN5CCC[C@H](C)C5)[nH]c4c3=O)c2)(c2nncn2C)C1 [Compound T134, 6-(3-((1s,3R)-3-methoxy-1-(4-methyl-4H-1,2,4-triazol-3-yl)cyclobutyl)phenyl)-2-(((S)-3-methylpiperidin-1-yl)methyl)-4-(trifluoromethyl)-1,6-dihydro-7H-pyrrolo[2,3-c]pyridin-7-one] | <500
< 50 | CO[C@H]1C[C@](c2cccc(-n3cc(C(F)(F)F)c4cc(CN5CCC[C@H](C)C5)[nH]c4c3=O)c2)(c2nncn2C)C1 [Compound T135, 6-(3-((1r,3S)-3-methoxy-1-(4-methyl-4H-1,2,4-triazol-3-yl)cyclobutyl)phenyl)-2-(((S)-3-methylpiperidin-1-yl)methyl)-4-(trifluoromethyl)-1,6-dihydro-7H-pyrrolo[2,3-c]pyridin-7-one] | <500
< 50 | CO[C@H]1C[C@@](c2cccc(-n3cc(C(F)(F)F)c4cc(CN5CC6CCC(C6)C5)[nH]c4c3=O)c2)(c2nncn2C)C1 [Compound T145, 2-((3-azabicyclo[3.2.1]octan-3-yl)methyl)-6-(3-((1s,3s)-3-methoxy-1-(4-methyl-4H-1,2,4-triazol-3-yl)cyclobutyl)phenyl)-4-(trifluoromethyl)-1,6-dihydro-7H-pyrrolo[2,3-c]pyridin-7-one] | <500
< 50 | CO[C@H]1C[C@@](c2cccc(-n3cc(C(F)(F)F)c4cc(CN5CCCC6(CC6)C5)[nH]c4c3=O)c2)(c2nncn2C)C1 [Compound T147, 2-((5-azaspiro[2.5]octan-5-yl)methyl)-6-(3-((1s,3s)-3-methoxy-1-(4-methyl-4H-1,2,4-triazol-3-yl)cyclobutyl)phenyl)-4-(trifluoromethyl)-1,6-dihydro-7H-pyrrolo[2,3-c]pyridin-7-one] | <500
< 50 | CCN(Cc1cc2c(C(F)(F)F)cn(-c3cccc([C@]4(c5nncn5C)C[C@@H](OC)C4)c3)c(=O)c2[nH]1)CC(C)C [Compound T149, 2-((ethyl(isobutyl)amino)methyl)-6-(3-((1s,3s)-3-methoxy-1-(4-methyl-4H-1,2,4-triazol-3-yl)cyclobutyl)phenyl)-4-(trifluoromethyl)-1,6-dihydro-7H-pyrrolo[2,3-c]pyridin-7-one] | <500
